Experimental data taken from US20130137131A1, “System and Method of Producing Volatile Organic Compounds from Fungi” (priority 2010, published 2013).

System: Hypoxylon sp. CI-4
Test: Response of Hypoxylon sp. CI-4 to epigenetic modifying agents
Type: cell-based
Conditions: lower concentrations seemingly ineffective
Description: The wild-type Hypoxylon sp. had previously been found as an endophyte in Persea indica growing in the Laurisilva, Tenerife, Spain (Tomsheck et al., 2010, Microb Ecol 60:903-914). The fungus, growing on potato dextrose agar (PDA), was hyphal tipped in order to obtain a genetically pure strain, CI-4. This strain was used for epigenetic modulation using a histone deacetylase inhibitor, suberoylanilide hydroxamic acid (SAHA) and a DNA methyltransferase inhibitor, 5-azacytidine (AZA) as the modulating compounds (Cichewicz, 2010, Nat Prod Rep 27:11-22). Stock solutions of these compounds were prepared in DMSO and sterile deionized water, respectively. The fungus was grown on PDA supplemented with different concentrations of the epigenetic modulators (1, 5, 10, 20, 30, 50 and 100 μM) for 15 days. The numerous variants resulting from concentrations of modulators producing the most notable cultural, biological and VOC changes were selected for future study. The strains studied here were CI-4 (wild-type), CI4-B (strain selected after a 15 day exposure of CI-4 to 50 μM SAHA, hyphal tipped, transferred to PDA and studied without subsequent exposure to SAHA), CI4-SAHA (strain CI-4 exposed to 50 μM SAHA in all studies), and CI4-AZA (strain CI-4 exposed to 100 μM AZA in all studies).
Successful attempts were made to acquire a response of Hypoxylon sp. […]

SMILES	Changes in the morphology and bioactivities of the cultures (growth of strain CI-4 on PD broth with 50 μM SAHA)	Changes in the morphology and bioactivities of the cultures (growth of strain CI-4 on PD broth with 100 μM AZA)
O=C(CCCCCCC(=O)Nc1ccccc1)NO [SAHA, N-hydroxy-N′-phenyl-octanediamide]	the most striking changes in the morphology and bioactivities of the cultures	–
Nc1ncn([C@@H]2O[C@H](CO)[C@@H](O)[C@H]2O)c(=O)n1 [AZA, 4-amino-1-(β-D-ribofuranosyl)-1,3,5-triazin-2(1H)-one]	–	the most striking changes in the morphology and bioactivities of the cultures
